Strand notation (5' to 3'): a small letter for the sugar, then the base; units joined by * are phosphorothioate-linked, units joined directly phosphodiester-linked; [ ] holds rarer units or linkages, { } end groups; capitals alone tell only the bases. e = 2'-O-(2-methoxyethyl) (MOE); [5mC] = 5-methylcytosine; d = 2'-deoxy (DNA)
Columns and labels:
[1] = tested on: human SMAD7 mRNA; experiment: Antisense inhibition of human SMAD7 mRNA expression in Hep3B cells by 5-10-5 MOE gapmers, single concentration, electroporation, RT-PCR (Example 1, Study 1 and 2); format: cell-based; conditions: for % Inhibition: Study 2, electroporation with 15,000 nM antisense oligonucleotide
Summary of the method: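 Hep3B cells (20,000/well) electroporated with 5-10-5 MOE gapmer at 5,000 nM or 15,000 nM for approximately 24 h. SMAD7 mRNA quantified by real-time PCR with primer probe set RTS5062 and normalized to RIBOGREEN total RNA. Values are percent inhibition relative to untreated controls.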

[2] = tested on: human SMAD7 mRNA; experiment: Dose-dependent inhibition of human SMAD7 mRNA expression in Hep3B cells (Example 3, Study 1 and 2); format: cell-based; conditions: electroporation; for % inhibition of SMAD7 mRNA expression: approximately 16 hours; for IC50: Study 1 (312.5-20000 nM)
Summary of the method: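 Hep3B cells, 20,000 per well, electroporated with antisense oligonucleotide at 0.31, 1.25, 5.00 or 20.00 μM (first series) or 0.74, 2.22, 6.67 or 20.00 μM (second series). After ~16 h, SMAD7 mRNA measured by RT-qPCR (RTS5062), normalised to RIBOGREEN total RNA. Percent inhibition vs untreated cells; IC50 derived.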

[3] = 312.5 nM, Study 1, relative to untreated control cells
[4] = 5-10-5 MOE gapmers targeting SEQ ID NO: 1 and 2
[5] = electroporation, 15,000 nM antisense oligonucleotide (Study 2), 5-10-5 MOE gapmers targeting SEQ ID NO: 1 and 2

Substance	% inhibition of SMAD7 mRNA expression ([1]; electroporation, 15,000 nM, approximately 24 hours, relative to untreated control cells, gapmers targeting SEQ ID NO: 1 and 2)	% inhibition of SMAD7 mRNA expression [2, 3]	% inhibition of SMAD7 mRNA expression ([2]; 1250.0 nM, Study 1)	% inhibition of SMAD7 mRNA expression ([2]; 5000.0 nM, Study 1)	% inhibition of SMAD7 mRNA expression ([2]; 20000.0 nM, Study 1)	IC50 [2]	% Inhibition [1, 4]	% inhibition of SMAD7 mRNA expression ([1]; electroporation, 5,000 nM, approximately 24 hours, relative to untreated control cells, gapmers targeting SEQ ID NO: 1 and 2)	% inhibition of SMAD7 mRNA expression [1, 5]	% Inhibition of SMAD7 mRNA ([1]; electroporation with 15,000 nM antisense oligonucleotide (Study 2), 5-10-5 MOE gapmers targeting SEQ ID NO: 1 and 2)
771885 (antisense e[5mC]*eA*eA*eG*eT*d[5mC]*dT*d[5mC]*dT*dT*dA*d[5mC]*d[5mC]*dT*d[5mC]*eA*e[5mC]*e[5mC]*e[5mC]*eA) [compound 771885]	60%	0%	4%	20%	45%	> 20 µM	–	–	–	–
771891 (antisense e[5mC]*eT*e[5mC]*e[5mC]*e[5mC]*dA*dA*dG*d[5mC]*d[5mC]*dT*dA*d[5mC]*dA*dT*eA*eT*eT*eT*e[5mC]) [compound 771891]	–	0%	0%	10%	33%	> 20 µM	56%	65%	–	–
771900 (antisense eA*eT*eG*e[5mC]*e[5mC]*d[5mC]*dA*d[5mC]*d[5mC]*dA*dG*dT*d[5mC]*dT*dT*e[5mC]*e[5mC]*eT*eG*eA) [compound 771900]	–	0%	11%	8%	29%	> 20 µM	32%	–	–	–
771902 (antisense eG*eG*eG*eT*eT*d[5mC]*dT*d[5mC]*d[5mC]*dA*dG*d[5mC]*d[5mC]*dG*d[5mC]*eT*e[5mC]*eA*eG*eA) [compound 771902]	–	0%	17%	29%	59%	13 µM	77%	–	–	–
771937 (antisense eT*e[5mC]*e[5mC]*eA*eG*dT*dG*d[5mC]*dT*dT*dG*dT*dG*d[5mC]*dA*eT*eG*eT*eG*e[5mC]) [compound 771937]	–	0%	0%	4%	41%	> 20 µM	–	–	52%	–
771944 (antisense eG*eG*eT*eA*eA*dT*dT*dT*dT*d[5mC]*d[5mC]*dT*d[5mC]*dA*dA*e[5mC]*eA*eG*eG*e[5mC]) [compound 771944]	–	0%	34%	35%	48%	> 20 µM	–	–	8%	50%

From patent US10517889B2, “Modulators of SMAD7 expression” (Ionis Pharmaceuticals, Inc., priority 2017, dated 2019)
